Measured values from patent publication US6127409A, “Ascorbic acid derivative and vitamin C preparation containing the same” (priority 1997, dated 2000).
Counter-ions that a name gives are not always drawn. Like-named read-outs stand apart in the source and are kept apart here.

Key:
[1] = Stability: residual ratio (concentration after storage/initial concentration) by HPLC after standing at room temperature for 10 days; format: physicochemical; conditions: water
Experimental: Then, their residual ratios (concentration after storage/initial concentration) were determined by HPLC through a column Shodex Asahipak NH2P-50 4E (trade name, manufactured by Showa Denko KK) to evaluate stability.

[2] = system: normal human adult mamma epidermal Keratinocyte; format: cell-based; conditions: 20 hours culture
Experimental: About 6×10^5 cells of a normal human adult mamma epidermal Keratinocyte (available from Kurashiki Boseki KK) were sowed on a 60 mm plate and cultured in a serum-free culturing medium (manufactured by Kurashiki Boseki KK) for 2 hours, and after displacing with the same culturing medium having added thereto from 2 to 50 μM of an ascorbic acid or a derivative thereof, further cultured for 20 hours. The cells were collected by trypsin treatment, and the number of cells was counted by a Coulter Counter Model DN (trade name, manufactured by Coulter Electronics). The cells thus collected were washed with Hank's equilibrium salt solution, pulverized in an ultrasonic homogenizer, filtered through a Mol-cut II (UFPlLCC) (trade name, produced by Nippon Milipore KK) and analyzed by HPLC through a column Shodex Asahipak NH2P-50 4E (trade name, produced by Showa Denko KK). The amount of ascorbic acid and derivatives thereof was measured to determine the intracellular cumulative amount. As a control, culturing was performed in the same manner as above except for not adding ascorbic acid or a derivative thereof, and the ascorbic acid was quantitatively determined. The difference in the intracellular ascorbic acid cumulative amount between the case where ascorbic acid or a derivative thereof was added and the case where ascorbic acid or a derivative thereof was not added is shown in Table 2. […]

remaining at 240 h, 2000 µM [1] [%]	Structure (SMILES)	remaining at 240 h, 2000 µM ([1]; 2 mM aqueous solution, room temperature, 10 days, HPLC, read-out: Stability (residual ratio: concentration after storage/initial concentration)) [%]	Intracellular Cumulative Amount (difference from not added) ([2]; addition amount 2 μM) [Pmole/cell]	Intracellular Cumulative Amount (difference from not added) ([2]; addition amount 50 μM) [Pmole/cell]
–	O=C1O[C@H]([C@@H](O)CO)C(O)=C1OP(=O)([O-])[O-].[Mg+2] [L-Ascorbic acid-2-phosphate magnesium salt]	97	< 0.0002	0.0022
98	CCCCCCCCCCCCCCCC(=O)OC[C@H](O)[C@H]1OC(=O)C(OP(=O)(O)O)=C1O [L-Ascorbic acid-2-phosphate-6-palmitate magnesium salt]	–	–	–
